Reference: ChEMBL document CHEMBL1201862, “PubChem BioAssay data set” (2004)
The source made the active and inactive calls.

How the values were obtained:
Assay type in all cases: functional
[1] = biological target: T1, Tyrosine-protein kinase receptor TYRO3 (Homo sapiens, UniProt Q06418);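 also: TYRO3 value obtained as one member of a kinome-wide profiling panel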
T1 sequence (Q06418 whole entry): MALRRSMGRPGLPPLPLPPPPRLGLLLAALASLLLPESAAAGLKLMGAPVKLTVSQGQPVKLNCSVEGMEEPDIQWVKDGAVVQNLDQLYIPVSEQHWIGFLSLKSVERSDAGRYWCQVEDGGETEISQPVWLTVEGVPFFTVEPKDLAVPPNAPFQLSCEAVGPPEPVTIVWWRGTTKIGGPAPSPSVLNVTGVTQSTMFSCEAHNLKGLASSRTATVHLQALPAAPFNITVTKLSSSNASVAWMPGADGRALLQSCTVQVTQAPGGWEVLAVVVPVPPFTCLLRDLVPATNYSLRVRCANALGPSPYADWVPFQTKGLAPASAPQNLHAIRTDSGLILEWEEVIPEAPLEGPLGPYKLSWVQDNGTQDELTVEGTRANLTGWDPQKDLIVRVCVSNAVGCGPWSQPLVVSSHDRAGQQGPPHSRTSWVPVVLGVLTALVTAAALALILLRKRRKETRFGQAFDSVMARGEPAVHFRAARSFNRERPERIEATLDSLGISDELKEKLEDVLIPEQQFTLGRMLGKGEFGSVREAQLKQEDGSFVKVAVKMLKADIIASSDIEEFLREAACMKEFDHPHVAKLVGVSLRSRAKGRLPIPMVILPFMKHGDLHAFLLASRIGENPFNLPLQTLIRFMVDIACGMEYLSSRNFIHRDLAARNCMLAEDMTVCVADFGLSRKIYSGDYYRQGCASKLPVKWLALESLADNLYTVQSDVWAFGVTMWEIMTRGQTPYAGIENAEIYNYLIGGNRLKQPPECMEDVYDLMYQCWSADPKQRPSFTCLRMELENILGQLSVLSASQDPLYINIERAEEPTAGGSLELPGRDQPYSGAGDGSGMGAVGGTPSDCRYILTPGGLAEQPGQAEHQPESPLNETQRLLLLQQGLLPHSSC

[2] = biological target: Mitogen-activated protein kinase 8 (Homo sapiens, UniProt P45983);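 also: value comes from one member of a kinome-wide kinase profiling panel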
[3] = biological target: Fibroblast growth factor receptor 1 (Homo sapiens, UniProt P11362)
[4] = biological target: T2, Tyrosine-protein kinase JAK3 (Homo sapiens, UniProt P52333)
T2 sequence (P52333 whole entry): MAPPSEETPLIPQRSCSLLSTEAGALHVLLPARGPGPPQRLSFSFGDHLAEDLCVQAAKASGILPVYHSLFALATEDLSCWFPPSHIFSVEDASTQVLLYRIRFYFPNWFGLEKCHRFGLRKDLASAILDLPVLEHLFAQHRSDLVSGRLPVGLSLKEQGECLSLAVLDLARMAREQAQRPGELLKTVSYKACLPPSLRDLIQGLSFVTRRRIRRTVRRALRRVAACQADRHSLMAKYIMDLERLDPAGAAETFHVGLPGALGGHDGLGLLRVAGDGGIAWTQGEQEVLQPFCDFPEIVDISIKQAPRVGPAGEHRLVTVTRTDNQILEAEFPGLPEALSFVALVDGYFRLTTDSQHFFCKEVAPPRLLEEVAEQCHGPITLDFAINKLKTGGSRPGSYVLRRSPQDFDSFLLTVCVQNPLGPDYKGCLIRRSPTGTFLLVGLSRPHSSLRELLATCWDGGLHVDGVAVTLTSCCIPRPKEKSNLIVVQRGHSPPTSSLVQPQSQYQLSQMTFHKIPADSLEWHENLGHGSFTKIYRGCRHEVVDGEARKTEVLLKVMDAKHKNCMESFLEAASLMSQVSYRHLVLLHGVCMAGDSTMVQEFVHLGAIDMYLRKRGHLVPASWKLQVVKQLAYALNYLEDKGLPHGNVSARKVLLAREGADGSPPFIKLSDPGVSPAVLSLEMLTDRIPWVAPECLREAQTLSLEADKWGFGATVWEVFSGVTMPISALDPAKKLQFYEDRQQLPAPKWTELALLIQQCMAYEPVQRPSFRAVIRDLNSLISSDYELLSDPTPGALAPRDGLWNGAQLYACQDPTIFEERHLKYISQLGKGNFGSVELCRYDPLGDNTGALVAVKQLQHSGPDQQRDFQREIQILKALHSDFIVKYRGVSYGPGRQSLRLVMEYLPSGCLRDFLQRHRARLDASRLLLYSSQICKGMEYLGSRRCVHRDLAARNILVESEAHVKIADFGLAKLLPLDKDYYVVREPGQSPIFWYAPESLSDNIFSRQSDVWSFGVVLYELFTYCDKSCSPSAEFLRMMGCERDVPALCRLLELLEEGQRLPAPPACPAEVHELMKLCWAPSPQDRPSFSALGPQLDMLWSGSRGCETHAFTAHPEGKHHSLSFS

[5] = biological target: Mitogen-activated protein kinase 9 (Homo sapiens, UniProt P45984);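 also: value from a kinome panel profiling assay, MAPK9 panel entry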
[6] = biological target: Dual specificity tyrosine-phosphorylation-regulated kinase 1B (Homo sapiens, UniProt Q9Y463); experiment: Navigating the Kinome. Panel member name: DYRK1B
[7] = biological target: T3, cAMP-dependent protein kinase catalytic subunit PRKX (Homo sapiens, UniProt P51817)
T3 sequence (P51817 whole entry): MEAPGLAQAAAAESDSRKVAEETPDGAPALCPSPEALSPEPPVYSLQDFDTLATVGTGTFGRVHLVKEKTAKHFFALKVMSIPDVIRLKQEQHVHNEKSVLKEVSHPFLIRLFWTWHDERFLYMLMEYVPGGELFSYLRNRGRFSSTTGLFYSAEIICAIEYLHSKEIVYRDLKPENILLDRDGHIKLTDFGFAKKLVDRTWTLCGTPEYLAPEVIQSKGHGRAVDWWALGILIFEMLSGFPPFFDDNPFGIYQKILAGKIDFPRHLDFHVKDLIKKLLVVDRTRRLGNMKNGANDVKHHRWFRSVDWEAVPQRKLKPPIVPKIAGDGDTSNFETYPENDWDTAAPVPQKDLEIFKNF

[8] = biological target: Focal adhesion kinase 1 (Homo sapiens, UniProt Q05397);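 also: measured as one member of a kinome panel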
[9] = biological target: Aurora kinase B (Homo sapiens, UniProt Q96GD4)
[10] = biological target: Cyclin-dependent kinase 9 (Homo sapiens, UniProt P50750);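 also: value from the CDK9 entry of a kinome-spanning kinase panel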
[11] = biological target: Macrophage colony-stimulating factor 1 receptor (Homo sapiens, UniProt P07333);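 also: value comes from the Navigating the Kinome screening panel, CSF1R member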
[12] = biological target: Calcium/calmodulin-dependent protein kinase type II subunit alpha (Homo sapiens, UniProt Q9UQM7); experiment: Navigating the Kinome. Panel member name: CAMK2A
[13] = biological target: cAMP-dependent protein kinase catalytic subunit alpha (Homo sapiens, UniProt P17612)
[14] = biological target: Dual specificity protein kinase CLK4 (Homo sapiens, UniProt Q9HAZ1)
Dual specificity protein kinase CLK4, sequence (Q9HAZ1 whole entry): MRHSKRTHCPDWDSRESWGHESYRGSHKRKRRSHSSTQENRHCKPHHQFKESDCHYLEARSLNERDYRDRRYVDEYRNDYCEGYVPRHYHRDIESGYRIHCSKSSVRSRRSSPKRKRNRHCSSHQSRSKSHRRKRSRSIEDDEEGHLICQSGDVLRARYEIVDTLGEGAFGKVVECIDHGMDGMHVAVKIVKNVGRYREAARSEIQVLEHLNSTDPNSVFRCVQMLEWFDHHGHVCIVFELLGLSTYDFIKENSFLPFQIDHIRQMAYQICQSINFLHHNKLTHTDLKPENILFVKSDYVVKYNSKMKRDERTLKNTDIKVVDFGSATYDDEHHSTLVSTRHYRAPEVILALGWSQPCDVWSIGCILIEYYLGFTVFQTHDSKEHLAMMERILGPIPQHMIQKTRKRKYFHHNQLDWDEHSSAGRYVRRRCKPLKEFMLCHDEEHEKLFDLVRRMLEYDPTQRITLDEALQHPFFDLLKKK

Calcium/calmodulin-dependent protein kinase type II subunit alpha, sequence (Q9UQM7 whole entry): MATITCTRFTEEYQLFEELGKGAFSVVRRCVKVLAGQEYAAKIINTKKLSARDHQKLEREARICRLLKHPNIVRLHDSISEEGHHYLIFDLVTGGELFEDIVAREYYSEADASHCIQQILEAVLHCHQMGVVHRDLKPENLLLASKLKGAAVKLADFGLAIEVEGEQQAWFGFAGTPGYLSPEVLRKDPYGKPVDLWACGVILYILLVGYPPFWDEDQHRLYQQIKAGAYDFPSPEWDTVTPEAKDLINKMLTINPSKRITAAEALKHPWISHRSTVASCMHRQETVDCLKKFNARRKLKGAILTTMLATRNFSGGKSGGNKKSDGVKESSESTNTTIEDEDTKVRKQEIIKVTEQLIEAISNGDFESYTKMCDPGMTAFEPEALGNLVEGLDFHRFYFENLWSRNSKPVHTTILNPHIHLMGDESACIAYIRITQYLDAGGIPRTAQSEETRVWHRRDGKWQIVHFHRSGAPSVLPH
Dual specificity tyrosine-phosphorylation-regulated kinase 1B, sequence (Q9Y463 whole entry): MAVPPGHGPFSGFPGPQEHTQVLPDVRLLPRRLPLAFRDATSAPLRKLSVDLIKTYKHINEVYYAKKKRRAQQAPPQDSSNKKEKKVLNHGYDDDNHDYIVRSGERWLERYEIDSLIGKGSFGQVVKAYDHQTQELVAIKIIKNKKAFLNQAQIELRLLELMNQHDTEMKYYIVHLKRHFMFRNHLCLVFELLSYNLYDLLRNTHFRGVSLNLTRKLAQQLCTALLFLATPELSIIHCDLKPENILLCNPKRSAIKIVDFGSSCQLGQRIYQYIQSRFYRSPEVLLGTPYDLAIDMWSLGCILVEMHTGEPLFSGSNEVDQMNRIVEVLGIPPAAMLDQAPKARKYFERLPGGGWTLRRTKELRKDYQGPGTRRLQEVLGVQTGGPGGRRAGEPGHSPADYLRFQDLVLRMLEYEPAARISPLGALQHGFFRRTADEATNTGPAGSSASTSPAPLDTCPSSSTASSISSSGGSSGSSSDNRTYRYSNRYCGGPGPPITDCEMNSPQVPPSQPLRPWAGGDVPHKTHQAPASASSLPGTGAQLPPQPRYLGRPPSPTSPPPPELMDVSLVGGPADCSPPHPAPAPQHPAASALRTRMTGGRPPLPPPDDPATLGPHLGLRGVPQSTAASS
Macrophage colony-stimulating factor 1 receptor, sequence (P07333 whole entry): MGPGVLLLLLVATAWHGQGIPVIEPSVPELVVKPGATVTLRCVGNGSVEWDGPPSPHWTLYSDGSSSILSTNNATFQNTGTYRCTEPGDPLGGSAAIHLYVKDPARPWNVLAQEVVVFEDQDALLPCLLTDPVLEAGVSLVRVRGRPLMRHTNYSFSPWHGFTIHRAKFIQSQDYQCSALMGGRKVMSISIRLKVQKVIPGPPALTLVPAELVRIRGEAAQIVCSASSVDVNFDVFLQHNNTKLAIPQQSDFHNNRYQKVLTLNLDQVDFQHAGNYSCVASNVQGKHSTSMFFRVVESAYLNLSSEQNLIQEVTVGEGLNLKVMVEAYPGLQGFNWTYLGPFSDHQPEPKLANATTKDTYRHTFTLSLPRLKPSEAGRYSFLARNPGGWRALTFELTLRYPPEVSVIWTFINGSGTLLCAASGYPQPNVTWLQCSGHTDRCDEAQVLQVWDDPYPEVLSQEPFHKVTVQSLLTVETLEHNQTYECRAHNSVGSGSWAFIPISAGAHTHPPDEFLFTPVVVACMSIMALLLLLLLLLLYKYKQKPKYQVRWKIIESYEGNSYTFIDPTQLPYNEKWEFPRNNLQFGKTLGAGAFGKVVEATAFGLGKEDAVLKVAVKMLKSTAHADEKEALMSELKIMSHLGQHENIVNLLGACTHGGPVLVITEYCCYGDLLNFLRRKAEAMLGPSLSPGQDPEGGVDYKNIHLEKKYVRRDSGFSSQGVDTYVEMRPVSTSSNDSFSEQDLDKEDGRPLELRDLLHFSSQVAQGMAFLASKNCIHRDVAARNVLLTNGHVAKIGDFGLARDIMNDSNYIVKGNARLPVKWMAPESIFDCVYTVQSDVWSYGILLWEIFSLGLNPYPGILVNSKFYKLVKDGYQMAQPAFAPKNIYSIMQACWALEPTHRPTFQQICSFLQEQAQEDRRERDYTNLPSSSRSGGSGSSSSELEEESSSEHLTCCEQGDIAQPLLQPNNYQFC
Aurora kinase B, sequence (Q96GD4 whole entry): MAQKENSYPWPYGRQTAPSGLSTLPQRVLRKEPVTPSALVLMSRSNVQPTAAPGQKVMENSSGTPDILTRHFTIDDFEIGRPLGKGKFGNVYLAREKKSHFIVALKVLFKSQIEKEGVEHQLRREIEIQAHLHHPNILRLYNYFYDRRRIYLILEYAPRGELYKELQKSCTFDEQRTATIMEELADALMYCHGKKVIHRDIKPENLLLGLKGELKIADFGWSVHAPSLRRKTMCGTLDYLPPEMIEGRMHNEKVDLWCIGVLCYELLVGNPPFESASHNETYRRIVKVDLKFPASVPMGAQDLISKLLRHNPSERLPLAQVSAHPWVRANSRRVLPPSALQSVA
Cyclin-dependent kinase 9, sequence (P50750 whole entry): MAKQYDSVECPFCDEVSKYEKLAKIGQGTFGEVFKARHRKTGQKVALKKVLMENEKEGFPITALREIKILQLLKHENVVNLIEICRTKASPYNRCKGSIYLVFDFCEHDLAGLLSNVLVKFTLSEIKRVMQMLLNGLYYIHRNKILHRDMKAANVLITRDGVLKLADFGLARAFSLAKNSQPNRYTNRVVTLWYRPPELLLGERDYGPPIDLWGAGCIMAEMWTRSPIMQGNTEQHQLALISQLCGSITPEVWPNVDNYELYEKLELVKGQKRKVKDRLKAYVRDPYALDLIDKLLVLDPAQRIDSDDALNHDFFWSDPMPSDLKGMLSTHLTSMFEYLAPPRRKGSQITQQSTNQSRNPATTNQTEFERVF
Mitogen-activated protein kinase 8, sequence (P45983 whole entry): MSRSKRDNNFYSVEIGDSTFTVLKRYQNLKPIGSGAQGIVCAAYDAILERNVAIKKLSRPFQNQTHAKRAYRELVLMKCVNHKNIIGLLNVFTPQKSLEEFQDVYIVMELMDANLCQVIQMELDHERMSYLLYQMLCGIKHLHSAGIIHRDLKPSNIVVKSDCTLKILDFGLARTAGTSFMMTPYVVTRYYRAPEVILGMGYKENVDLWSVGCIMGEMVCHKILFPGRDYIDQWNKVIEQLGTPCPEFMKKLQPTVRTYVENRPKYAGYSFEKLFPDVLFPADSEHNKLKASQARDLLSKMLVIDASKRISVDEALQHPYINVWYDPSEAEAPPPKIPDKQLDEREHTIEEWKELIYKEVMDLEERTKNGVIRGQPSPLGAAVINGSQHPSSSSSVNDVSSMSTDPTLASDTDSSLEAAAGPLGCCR
Fibroblast growth factor receptor 1, sequence (P11362 whole entry): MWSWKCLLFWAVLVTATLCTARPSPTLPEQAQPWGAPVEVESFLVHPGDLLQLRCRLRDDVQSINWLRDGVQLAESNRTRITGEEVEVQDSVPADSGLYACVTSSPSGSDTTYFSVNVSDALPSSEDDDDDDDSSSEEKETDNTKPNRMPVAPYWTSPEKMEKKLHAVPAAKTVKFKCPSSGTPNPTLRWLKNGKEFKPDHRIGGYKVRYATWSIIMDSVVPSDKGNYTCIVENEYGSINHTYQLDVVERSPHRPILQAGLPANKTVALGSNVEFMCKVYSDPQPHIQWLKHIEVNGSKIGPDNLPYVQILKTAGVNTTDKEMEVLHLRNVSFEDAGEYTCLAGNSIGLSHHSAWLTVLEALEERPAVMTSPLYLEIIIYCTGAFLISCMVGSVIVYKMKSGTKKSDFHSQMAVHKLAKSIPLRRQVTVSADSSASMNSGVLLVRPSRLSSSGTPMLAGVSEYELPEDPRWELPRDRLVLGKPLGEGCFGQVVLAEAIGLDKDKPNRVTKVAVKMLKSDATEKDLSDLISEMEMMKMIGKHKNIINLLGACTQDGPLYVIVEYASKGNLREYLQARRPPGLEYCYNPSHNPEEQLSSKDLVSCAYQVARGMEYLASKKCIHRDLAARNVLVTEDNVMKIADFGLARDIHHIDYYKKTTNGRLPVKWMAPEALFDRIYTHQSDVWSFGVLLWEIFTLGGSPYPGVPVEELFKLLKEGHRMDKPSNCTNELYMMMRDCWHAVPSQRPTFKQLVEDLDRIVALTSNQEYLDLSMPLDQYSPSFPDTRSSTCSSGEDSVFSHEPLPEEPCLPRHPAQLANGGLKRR
Mitogen-activated protein kinase 9, sequence (P45984 whole entry): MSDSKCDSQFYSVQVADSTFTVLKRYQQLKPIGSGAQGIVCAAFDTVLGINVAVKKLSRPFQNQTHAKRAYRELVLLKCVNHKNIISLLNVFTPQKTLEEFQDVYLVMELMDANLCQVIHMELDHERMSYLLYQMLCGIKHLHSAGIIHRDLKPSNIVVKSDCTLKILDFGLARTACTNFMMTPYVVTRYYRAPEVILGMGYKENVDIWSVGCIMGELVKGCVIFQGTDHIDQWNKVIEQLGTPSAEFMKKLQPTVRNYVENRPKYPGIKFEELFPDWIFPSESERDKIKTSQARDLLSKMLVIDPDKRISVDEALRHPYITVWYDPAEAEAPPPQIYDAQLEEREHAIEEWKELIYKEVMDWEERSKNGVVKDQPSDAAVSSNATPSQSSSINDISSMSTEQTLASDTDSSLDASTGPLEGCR

Row | Ki [1] | Ki [2] | Ki [3] | Ki [4] | Ki [5] | Ki [6] | Ki [7] | Ki [8] | Ki [9] | Ki [10] | Ki [11] | Ki [12] | Ki [13] | Ki [14] | Structure (SMILES)
1 | > 3.16 µM (inactive) | > 5.01 µM (inactive) | > 3.98 µM (inactive) | > 5.01 µM (inactive) | > 3.98 µM (inactive) | > 2.51 µM (inactive) | > 3.16 µM (inactive) | > 6.31 µM (inactive) | > 3.98 µM (inactive) | > 1.58 µM (inactive) | > 2.51 µM (inactive) | > 6.31 µM (inactive) | – | – | O=C(Nc1cccc(C(F)(F)F)n1)Nc1ccnc2cc(OC(F)F)ccc12
2 | > 2 µM (inactive) | > 5.01 µM (inactive) | 1.26 µM (active) | 0.00398 µM (active) | > 3.98 µM (inactive) | > 2.51 µM (inactive) | > 1.26 µM (inactive) | > 6.31 µM (inactive) | – | > 1.58 µM (inactive) | 1.58 µM (active) | 2.51 µM (active) | 0.2 µM (active) | > 1.58 µM (inactive) | CCC1CC(NS(=O)(=O)C2CC2)CC1c1ncc2cnc3[nH]ccc3n12 (stereo not drawn)
3 | 31.6 µM (active) | – | 50.1 µM (active) | – | – | 10 µM (active) | 12.6 µM (active) | 31.6 µM (active) | 5.01 µM (active) | 12.6 µM (active) | > 100 µM (inactive) | – | > 50.1 µM (inactive) | 1.26 µM (active) | O=c1[nH]c2cc(Br)cnc2[nH]1
4 | > 3.16 µM (inactive) | > 5.01 µM (inactive) | > 3.98 µM (inactive) | 3.98 µM (active) | > 3.98 µM (inactive) | > 2.51 µM (inactive) | > 3.16 µM (inactive) | – | > 3.98 µM (inactive) | > 1.58 µM (inactive) | > 2.51 µM (inactive) | > 7.94 µM (inactive) | > 1.26 µM (inactive) | 1.26 µM (active) | O=C(Nc1cccc(C(F)(F)F)n1)Nc1ccnc2cc(Cl)ccc12
